The test system of the test is CD2F1 mice, L1210 leukemia ip, survival T/C. Put plainly: NCI In Vivo Anticancer Drug Screen. Data for tumor model L1210 Leukemia (intraperitoneal) in CD2F1 (CDF1) mice. The note with it: higher = longer survival. The method in brief:
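Read-out first: treated-group measurement over vehicle-control measurement, expressed as a ratio. Animals bore a transplanted tumor line and were dosed with compound or vehicle.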

Where [1] appears, read: endpoint: mean survival time, dose: 100.0 mg/kg/injection, schedule: Q01DX001 (ip), vehicle: saline with Tween-80.
Where [2] appears, read: endpoint: mean survival time, dose: 100.0 mg/kg/injection, schedule: Q01DX009 (ip), vehicle: saline with Tween-80.
[3] abbreviates: endpoint: mean survival time, dose: 100.0 mg/kg/injection, schedule: Q04DX003 (ip), vehicle: saline with Tween-80.
The mark [4] stands for this setting: endpoint: mean survival time, dose: 200.0 mg/kg/injection, schedule: Q04DX003 (ip), vehicle: saline with Tween-80.
Setting [5] is: endpoint: mean survival time, dose: 400.0 mg/kg/injection, schedule: Q04DX003 (ip), vehicle: saline with Tween-80.

SMILES strings stand for the structures. Where “and” joins values, the source holds several entries; their conditions need not be identical. Identical values can stand only once. Toxic doses and inconclusive results are not listed.

Regarding `NCCSC1(O)C(=O)c2ccccc2-c2ccccc21` (centres undefined), the T/C is, setting by setting: (endpoint: mean survival time, dose: 37.5 mg/kg/injection, schedule: Q01DX009 (ip), vehicle: saline) 100 % of control; (endpoint: mean survival time, dose: 75.0 mg/kg/injection, schedule: Q01DX009 (ip), vehicle: saline) 101 % of control; (endpoint: mean survival time, dose: 150.0 mg/kg/injection, schedule: Q01DX009 (ip), vehicle: saline) 91 % of control.

For `CS(=O)(=O)c1ccncc1`, the T/C by setting is: (endpoint: mean survival time, dose: 100.0 mg/kg/injection, schedule: Q04DX003 (ip), vehicle: saline sonified) 95 % of control; (endpoint: mean survival time, dose: 200.0 mg/kg/injection, schedule: Q04DX003 (ip), vehicle: saline sonified) 98 % of control.

As to `COc1ccc2[nH]c(=O)oc(=O)c2c1`, the T/C by setting is: (endpoint: mean survival time, dose: 12.5 mg/kg/injection, schedule: Q01DX009 (ip), vehicle: Klucel (hydroxypropylcellulose) (HPC)) 96 % of control; (endpoint: mean survival time, dose: 25.0 mg/kg/injection, schedule: Q01DX009 (ip), vehicle: Klucel (hydroxypropylcellulose) (HPC)) 102 % of control; (endpoint: mean survival time, dose: 50.0 mg/kg/injection, schedule: Q01DX009 (ip), vehicle: Klucel (hydroxypropylcellulose) (HPC)) 108 % of control; under setting [1], 96 % of control; (endpoint: mean survival time, dose: 100.0 mg/kg/injection, schedule: Q01DX009 (ip), vehicle: Klucel (hydroxypropylcellulose) (HPC)) 106 % of control; under setting [2], 104 % of control. The T/C reads like this: (endpoint: mean survival time, dose: 200.0 mg/kg/injection, schedule: Q01DX001 (ip), vehicle: saline with Tween-80) 107 % of control; (endpoint: mean survival time, dose: 400.0 mg/kg/injection, schedule: Q01DX001 (ip), vehicle: saline with Tween-80) 105 % of control.

As for `O=C1OC(O)(c2ccc(Cl)cc2)C(Cc2ccccc2)=C1c1ccccc1` (centres undefined), the T/C is 97 % of control (endpoint: mean survival time, dose: 100.0 mg/kg/injection, schedule: Q04DX002 (ip), vehicle: saline with Tween-80); 90 % of control (endpoint: mean survival time, dose: 200.0 mg/kg/injection, schedule: Q04DX002 (ip), vehicle: saline with Tween-80); 102 % of control (endpoint: mean survival time, dose: 400.0 mg/kg/injection, schedule: Q04DX002 (ip), vehicle: saline with Tween-80).

Turning to `CC1(C)CC(O)(Cc2ccccc2)C(O)c2ccccc21` (centres undefined), the T/C is, setting by setting: under setting [3], 93 % of control; under setting [4], 97 % of control; under setting [5], 93 % of control.

`O=S(=O)(F)/C=C/c1ccccc1`: the T/C under setting [3] is 88 % of control and the T/C under setting [4] is 97 % of control.

Take `COC(=O)C1(C)CCCC2(C)C3CCC(C)(CCOC(C)=O)CC3C(OC(C)=O)CC12` (centres undefined): the T/C under setting [1] is 90 % of control.

Turning to `OC(Cc1nc(-c2ccccc2)c(-c2ccccc2)s1)(C(F)(F)F)C(F)(F)F`, the T/C was 95 % of control under setting [2]; 91 % of control under setting [3]; 101 % of control (endpoint: mean survival time, dose: 200.0 mg/kg/injection, schedule: Q01DX009 (ip), vehicle: saline with Tween-80); 95 % of control under setting [4]; 86 % of control (endpoint: mean survival time, dose: 400.0 mg/kg/injection, schedule: Q01DX009 (ip), vehicle: saline with Tween-80); 89 % of control under setting [5].

For `O=C1/C(=N/O)Cc2ccccc21`, the T/C (endpoint: mean survival time, dose: 12.5 mg/kg/injection, schedule: Q01DX009 (ip), vehicle: saline with Tween-80) is 97 % of control.

As for `Cc1ccc(S(=O)(=O)NC(=O)C2C(=O)CC3(CCCCC3)CC2=O)cc1`, the T/C runs as follows: (endpoint: median survival time, dose: 50.0 mg/kg/injection, schedule: Q01DX009 (ip), vehicle: Klucel (hydroxypropylcellulose) (HPC)) 100 % of control; (endpoint: median survival time, dose: 100.0 mg/kg/injection, schedule: Q01DX009 (ip), vehicle: Klucel (hydroxypropylcellulose) (HPC)) 102 % of control.

For the compound `O=C(Nc1ccc2ccccc2c1)OC1CCS(=O)(=O)C1` (centres undefined), the T/C is 102 % of control (endpoint: mean survival time, dose: 75.0 mg/kg/injection, schedule: Q04DX003 (ip), vehicle: saline); 102 % of control (endpoint: mean survival time, dose: 150.0 mg/kg/injection, schedule: Q04DX003 (ip), vehicle: saline); 98 % of control (endpoint: mean survival time, dose: 300.0 mg/kg/injection, schedule: Q04DX003 (ip), vehicle: saline).

For `CNCCN=c1ccc2c3c1c(O)c1c(O)ccc(=O)c1c3[nH]n2CCNCCO`, the T/C (endpoint: median survival time, dose: 0.37 mg/kg/injection, schedule: Q01DX009 (ip), vehicle: water) is 152 % of control and 207 % of control; the T/C (endpoint: median survival time, dose: 0.75 mg/kg/injection, schedule: Q01DX009 (ip), vehicle: water) is 182 % of control and 195 % of control; the T/C (endpoint: median survival time, dose: 1.5 mg/kg/injection, schedule: Q01DX009 (ip), vehicle: water) was 154 % of control and 195 % of control; the T/C (endpoint: median survival time, dose: 3.0 mg/kg/injection, schedule: Q01DX009 (ip), vehicle: water) was 264 % of control and 280 % of control; the T/C (endpoint: median survival time, dose: 3.12 mg/kg/injection, schedule: Q01DX009 (ip), vehicle: water) was 337 % of control; the T/C (endpoint: median survival time, dose: 6.0 mg/kg/injection, schedule: Q01DX009 (ip), vehicle: water) is 120 % of control and 103 % of control. Besides, the T/C (endpoint: median survival time, dose: 6.25 mg/kg/injection, schedule: Q01DX009 (ip), vehicle: water) was 120 % of control.

Regarding `C1=C[N-]c2c3c(ccc2=C1)=CC=C[N-]3.C1=C[N-]c2c3c(ccc2=C1)=CC=C[N-]3.[Cl][Ru][Cl]`, the T/C is 90 % of control (endpoint: mean survival time, dose: 3.13 mg/kg/injection, schedule: Q04DX003 (ip), vehicle: water); 90 % of control (endpoint: mean survival time, dose: 6.25 mg/kg/injection, schedule: Q04DX003 (ip), vehicle: water); 88 % of control (endpoint: mean survival time, dose: 12.5 mg/kg/injection, schedule: Q04DX003 (ip), vehicle: water).

Consider `CC[P+]1(c2ccccc2)CCCc2ccc3ccccc3c21` (centres undefined), for which the T/C is 117 % of control (endpoint: mean survival time, dose: 12.5 mg/kg/injection, schedule: Q04DX003 (ip), vehicle: saline) and 110 % of control (endpoint: mean survival time, dose: 25.0 mg/kg/injection, schedule: Q04DX003 (ip), vehicle: saline).

Regarding `C(CC1CO1)C1CO1` (centres undefined), the T/C (endpoint: mean survival time, dose: 2.5 mg/kg/injection, schedule: Q01DX009 (ip), vehicle: Klucel (hydroxypropylcellulose) (HPC)) is 98 % of control and 104 % of control; the T/C (endpoint: mean survival time, dose: 5.0 mg/kg/injection, schedule: Q01DX009 (ip), vehicle: Klucel (hydroxypropylcellulose) (HPC)) was 98 % of control and 104 % of control; the T/C (endpoint: mean survival time, dose: 10.0 mg/kg/injection, schedule: Q01DX009 (ip), vehicle: Klucel (hydroxypropylcellulose) (HPC)) is 92 % of control and 96 % of control; the T/C (endpoint: mean survival time, dose: 20.0 mg/kg/injection, schedule: Q01DX009 (ip), vehicle: Klucel (hydroxypropylcellulose) (HPC)) was 98 % of control and 104 % of control; the T/C (endpoint: mean survival time, dose: 40.0 mg/kg/injection, schedule: Q01DX009 (ip), vehicle: Klucel (hydroxypropylcellulose) (HPC)) is 95 % of control and 98 % of control; the T/C (endpoint: mean survival time, dose: 49.5 mg/kg/injection, schedule: Q01DX009 (ip), vehicle: Klucel (hydroxypropylcellulose) (HPC)) is 122 % of control. Further, where the note is “endpoint: mean survival time, dose: 80.0 mg/kg/injection, schedule: Q01DX009 (ip), vehicle: Klucel (hydroxypropylcellulose) (HPC)”, the T/C was 96 % of control and 98 % of control.

Take `CCC(O)C[As](=O)(O)c1ccc(Cl)cc1` (centres undefined): the T/C reads like this: (endpoint: mean survival time, dose: 0.38 mg/kg/injection, schedule: Q01DX009 (ip), vehicle: water) 98 % of control; (endpoint: mean survival time, dose: 0.78 mg/kg/injection, schedule: Q01DX009 (ip), vehicle: water) 98 % of control; (endpoint: mean survival time, dose: 1.5 mg/kg/injection, schedule: Q01DX009 (ip), vehicle: water) 94 % of control.

In the case of `CC1CCCCC1C(C)(C#N)Nc1ccccc1` (centres undefined), the T/C under setting [3] is 103 % of control, the T/C under setting [4] was 104 % of control and the T/C under setting [5] was 97 % of control.

For `CCOC(=O)Nc1cc(NCc2ccccc2)c([N+](=O)[O-])c(N)n1`, the T/C (endpoint: mean survival time, dose: 12.5 mg/kg/injection, schedule: Q01DX001 (ip), vehicle: Klucel (hydroxypropylcellulose) (HPC)) is 109 % of control; the T/C (endpoint: mean survival time, dose: 25.0 mg/kg/injection, schedule: Q01DX001 (ip), vehicle: Klucel (hydroxypropylcellulose) (HPC)) was 101 % of control; the T/C (endpoint: mean survival time, dose: 50.0 mg/kg/injection, schedule: Q01DX001 (ip), vehicle: Klucel (hydroxypropylcellulose) (HPC)) is 91 % of control.

On to `Fc1ccc(NC(=S)S)cc1`, for which the T/C (endpoint: mean survival time, dose: 6.25 mg/kg/injection, schedule: Q01DX009 (ip), vehicle: saline) was 86 % of control; the T/C (endpoint: mean survival time, dose: 12.5 mg/kg/injection, schedule: Q01DX009 (ip), vehicle: saline) was 114 % of control; the T/C (endpoint: mean survival time, dose: 25.0 mg/kg/injection, schedule: Q01DX009 (ip), vehicle: saline) is 93 % of control.

For the compound `COC1OC(C)CC(C)(C)O1` (centres undefined), the T/C by setting is: (endpoint: mean survival time, dose: 100.0 mg/kg/injection, schedule: Q04DX002 (ip), vehicle: saline) 89 % of control; (endpoint: mean survival time, dose: 200.0 mg/kg/injection, schedule: Q04DX002 (ip), vehicle: saline) 96 % of control; (endpoint: mean survival time, dose: 400.0 mg/kg/injection, schedule: Q04DX002 (ip), vehicle: saline) 100 % of control.

For the compound `CC(=O)SC(Cc1ccccc1)(Cc1ccccc1)SC(C)=O`, the T/C is 97 % of control under setting [3], 95 % of control under setting [4] and 100 % of control under setting [5].

In the case of `Cc1nc(-c2ccccc2)[nH]c(=O)c1Cc1cc2c(cc1O)OCC2`, the T/C (endpoint: mean survival time, dose: 100.0 mg/kg/injection, schedule: Q01DX001 (ip), vehicle: saline) was 100 % of control; the T/C (endpoint: mean survival time, dose: 200.0 mg/kg/injection, schedule: Q01DX001 (ip), vehicle: saline) is 101 % of control; the T/C (endpoint: mean survival time, dose: 400.0 mg/kg/injection, schedule: Q01DX001 (ip), vehicle: saline) was 100 % of control.

The record behind these values is PubChem BioAssay AID256 (DTP/NCI, 2004).
